Measurements published in PubChem BioAssay (NCI).
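Compound exposure: 48 hours, 5 concentrations, 96-well plates. GI50: concentration for 50% inhibition of growth. TGI: concentration producing complete growth inhibition.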 Where a SMILES comes first, the peptide text is derived from it. Bridges are numbered along the chain shown (N, C = ends). [ ]: non-standard residue; d: D form. The star is where a group is joined. ξ: configuration not given here. X26 = O=C(/C=C/C=C/C=C/C=C/C=C/C(=O)*)NC1=C(O)CCC1=O; NMeA = CN[C@@H](C)C(=O)O; ξF = NC(Cc1ccccc1)C(=O)O; ξA = CC(N)C(=O)O

Columns and labels:
Assay in all cases: NCI tumour cell line growth inhibition, 48 h
HT29 colon = system: HT29 colon
MDA-MB-231 breast = system: MDA-MB-231 breast
NCI-H226 lung = system: NCI-H226 lung
MCF7 breast = system: MCF7 breast
SN12C renal = system: SN12C renal
OVCAR-8 ovarian = system: OVCAR-8 ovarian
SW-620 colon = system: SW-620 colon
PC-3 prostate = system: PC-3 prostate
A498 renal = system: A498 renal
HOP-62 NSCLC = system: HOP-62 NSCLC

## CSc1c(C#N)c(N)n(-c2ccc(C)cc2)c(=O)c1C#N
HT29 colon
  TGI: > 100 µM
MDA-MB-231 breast
  TGI: > 100 µM
NCI-H226 lung
  TGI: > 100 µM
MCF7 breast
  TGI: > 100 µM
SN12C renal
  TGI: > 100 µM
OVCAR-8 ovarian
  TGI: > 100 µM
SW-620 colon
  TGI: > 100 µM
PC-3 prostate
  TGI: > 100 µM
A498 renal
  TGI: > 100 µM

## COc1cc2nc(-c3cccs3)oc(=O)c2cc1OC
HT29 colon
  TGI: > 100 µM
MDA-MB-231 breast
  TGI: > 100 µM
NCI-H226 lung
  TGI: > 100 µM
HOP-62 NSCLC
  TGI: 69.1 µM
MCF7 breast
  TGI: > 100 µM
SN12C renal
  TGI: > 100 µM
OVCAR-8 ovarian
  TGI: > 100 µM
SW-620 colon
  TGI: > 100 µM
PC-3 prostate
  TGI: > 100 µM
A498 renal
  TGI: > 100 µM

## C(/C=C(\Nc1ccccc1)C12CC3CC(CC(C3)C1)C2)=Nc1ccccc1
HT29 colon
  TGI: 27.6 µM
MDA-MB-231 breast
  TGI: 34.1 µM
NCI-H226 lung
  TGI: 38.5 µM
HOP-62 NSCLC
  TGI: 45.7 µM
MCF7 breast
  TGI: 59.4 µM
SN12C renal
  TGI: 36.2 µM
OVCAR-8 ovarian
  TGI: 49.8 µM
SW-620 colon
  TGI: 41.7 µM
PC-3 prostate
  TGI: 33.1 µM
A498 renal
  TGI: > 100 µM

## O=c1[nH]cnc2c1ncn2[C@@H]1C[C@@H]1CO
HT29 colon
  TGI: > 100 µM
MDA-MB-231 breast
  TGI: > 100 µM
NCI-H226 lung
  TGI: > 100 µM
HOP-62 NSCLC
  TGI: > 100 µM
MCF7 breast
  TGI: > 100 µM
SN12C renal
  TGI: > 100 µM
OVCAR-8 ovarian
  TGI: > 100 µM
SW-620 colon
  TGI: > 100 µM
PC-3 prostate
  TGI: > 100 µM

## O=C1CC(C(O)(C(F)(F)F)C(F)(F)Cl)CCC1C(O)(C(F)(F)F)C(F)(F)Cl (stereo not drawn)
HT29 colon
  TGI: > 10 µM
MDA-MB-231 breast
  TGI: > 10 µM
NCI-H226 lung
  TGI: > 10 µM
HOP-62 NSCLC
  TGI: > 10 µM
MCF7 breast
  TGI: > 10 µM
SN12C renal
  TGI: > 10 µM
OVCAR-8 ovarian
  TGI: > 10 µM
SW-620 colon
  TGI: > 10 µM
PC-3 prostate
  TGI: > 10 µM
A498 renal
  TGI: > 10 µM

## Nc1ccc(-c2nc3ccccc3s2)cc1C(F)(F)F
HT29 colon
  TGI: 29.1 µM
MDA-MB-231 breast
  TGI: 26.3 µM
NCI-H226 lung
  GI50: 15.3 µM
  TGI: 34.4 µM
HOP-62 NSCLC
  TGI: 30 µM
MCF7 breast
  TGI: 19.4 µM
SN12C renal
  TGI: 27.3 µM
OVCAR-8 ovarian
  TGI: 43.1 µM
SW-620 colon
  TGI: 35.3 µM
PC-3 prostate
  TGI: 29.1 µM
A498 renal
  TGI: 31.4 µM

## O=C(NCCCN(CCCCN(CCCNC(=O)C(F)(F)F)Cc1ccc2ccccc2c1)Cc1ccc2ccccc2c1)C(F)(F)F
HT29 colon
  TGI: 2.57 µM
MDA-MB-231 breast
  TGI: > 100 µM
NCI-H226 lung
  TGI: > 100 µM
HOP-62 NSCLC
  TGI: > 100 µM
MCF7 breast
  TGI: 4.54 µM
SN12C renal
  TGI: > 100 µM
OVCAR-8 ovarian
  TGI: > 100 µM
SW-620 colon
  TGI: > 100 µM
PC-3 prostate
  TGI: > 100 µM
A498 renal
  TGI: > 100 µM

## Cc1ccc(CC[P+](=O)CCc2ccc(C)nc2)cn1
HT29 colon
  TGI: > 100 µM
MDA-MB-231 breast
  TGI: > 100 µM
NCI-H226 lung
  TGI: > 100 µM
HOP-62 NSCLC
  TGI: > 100 µM
MCF7 breast
  TGI: > 100 µM
SN12C renal
  TGI: > 100 µM
OVCAR-8 ovarian
  TGI: > 100 µM
SW-620 colon
  TGI: > 100 µM
PC-3 prostate
  TGI: > 100 µM

## O=C(Oc1cc(=O)c(OC(=O)c2ccccc2)co1)c1ccccc1
HT29 colon
  TGI: > 100 µM
MDA-MB-231 breast
  TGI: > 100 µM
NCI-H226 lung
  TGI: > 100 µM
HOP-62 NSCLC
  TGI: > 100 µM
MCF7 breast
  TGI: > 100 µM
SN12C renal
  TGI: > 100 µM
OVCAR-8 ovarian
  TGI: > 100 µM
SW-620 colon
  TGI: > 100 µM
PC-3 prostate
  TGI: > 100 µM
A498 renal
  TGI: > 100 µM

## S=C(/N=c1\sc(Nc2ccc(Cl)cc2)nc2sc3c(c12)CCN(N1CCc2c(sc4nc(Nc5ccc(Cl)cc5)s/c(=N\C(=S)Nc5ccc(Cl)cc5)c24)C1)C3)Nc1ccc(Cl)cc1
HT29 colon
  TGI: 36.1 µM
MDA-MB-231 breast
  TGI: 35.1 µM
NCI-H226 lung
  TGI: > 100 µM
HOP-62 NSCLC
  TGI: > 100 µM
MCF7 breast
  TGI: > 100 µM
SN12C renal
  TGI: 38.5 µM
OVCAR-8 ovarian
  TGI: > 100 µM
SW-620 colon
  TGI: > 100 µM
PC-3 prostate
  TGI: 87.9 µM

## CC1(C)C2CC(=O)C1(C)C(O)C2Br (stereo not drawn)
HT29 colon
  TGI: > 100 µM
MDA-MB-231 breast
  TGI: > 100 µM
NCI-H226 lung
  TGI: > 100 µM
HOP-62 NSCLC
  TGI: > 100 µM
MCF7 breast
  TGI: > 100 µM
SN12C renal
  TGI: > 100 µM
OVCAR-8 ovarian
  TGI: > 100 µM
SW-620 colon
  TGI: > 100 µM
PC-3 prostate
  TGI: > 100 µM
A498 renal
  TGI: > 100 µM

## CC(=O)c1cccn1/C=C(\OC(=O)OC(C)(C)C)c1ccc[nH]1
MDA-MB-231 breast
  TGI: > 100 µM
NCI-H226 lung
  TGI: > 100 µM
HOP-62 NSCLC
  TGI: > 100 µM
MCF7 breast
  TGI: > 100 µM
SN12C renal
  TGI: > 100 µM
OVCAR-8 ovarian
  TGI: > 100 µM
SW-620 colon
  TGI: > 100 µM
PC-3 prostate
  TGI: > 100 µM
A498 renal
  TGI: > 100 µM

## CC1NC(=O)[C@H](C)N(C)C(=O)[C@@H]2CCCN2C(=O)[C@@H](NC(=O)C(Cc2ccccc2)NC(=O)/C=C/C=C/C=C/C=C/C=C/C(=O)NC2=C(O)CCC2=O)COC(=O)[C@@H]2CCCN2C1=O (stereo partly drawn) (X26-[ξF]SP[NMeA][ξA]P; ester 2-C)
HT29 colon
  TGI: > 100 µM
MDA-MB-231 breast
  TGI: > 100 µM
HOP-62 NSCLC
  TGI: > 100 µM
MCF7 breast
  TGI: > 100 µM
SN12C renal
  TGI: > 100 µM
SW-620 colon
  TGI: > 100 µM
PC-3 prostate
  TGI: > 100 µM

## c1ccc2c(c1)c1c(n2CCOCCN2CCOCC2)CCCC1
HT29 colon
  TGI: 31.6 µM
MDA-MB-231 breast
  TGI: 47 µM
HOP-62 NSCLC
  TGI: > 100 µM
MCF7 breast
  TGI: > 100 µM
OVCAR-8 ovarian
  TGI: > 100 µM
SW-620 colon
  TGI: > 100 µM
PC-3 prostate
  TGI: > 100 µM
A498 renal
  TGI: 98.9 µM

## CCc1c[n+]([O-])c(C)cc1[N+](=O)[O-]
HT29 colon
  TGI: > 100 µM
MDA-MB-231 breast
  TGI: 80.7 µM
HOP-62 NSCLC
  TGI: > 100 µM
MCF7 breast
  TGI: > 100 µM
SN12C renal
  TGI: > 100 µM
OVCAR-8 ovarian
  TGI: > 100 µM
SW-620 colon
  TGI: > 100 µM
PC-3 prostate
  TGI: > 100 µM
A498 renal
  TGI: > 100 µM

## Cc1c(N2C(=O)C(Cl)C2c2ccc(Cl)cc2)c(=O)n(-c2ccccc2)n1C (stereo not drawn)
HT29 colon
  TGI: > 100 µM
MDA-MB-231 breast
  TGI: > 100 µM
NCI-H226 lung
  TGI: > 100 µM
HOP-62 NSCLC
  TGI: > 100 µM
MCF7 breast
  TGI: > 100 µM
SN12C renal
  TGI: > 100 µM
OVCAR-8 ovarian
  TGI: > 100 µM
SW-620 colon
  TGI: > 100 µM
PC-3 prostate
  TGI: > 100 µM

## CN(Cc1ccccc1)c1cc(=O)n(C)c(=O)[nH]1
HT29 colon
  TGI: > 100 µM
MDA-MB-231 breast
  TGI: > 100 µM
NCI-H226 lung
  TGI: > 100 µM
MCF7 breast
  TGI: > 100 µM
SN12C renal
  TGI: > 100 µM
OVCAR-8 ovarian
  TGI: > 100 µM
SW-620 colon
  TGI: > 100 µM
PC-3 prostate
  TGI: > 100 µM
A498 renal
  TGI: > 100 µM

## C[C@]12CC[C@@H]3c4ccc(O)cc4CC[C@H]3[C@@H]1C/C(=C\c1ccncc1)[C@@H]2O
HT29 colon
  TGI: > 100 µM
MDA-MB-231 breast
  TGI: 41.2 µM
NCI-H226 lung
  TGI: 42.1 µM
HOP-62 NSCLC
  TGI: 44.5 µM
MCF7 breast
  TGI: 30.2 µM
SN12C renal
  TGI: > 100 µM
OVCAR-8 ovarian
  TGI: 31.7 µM
SW-620 colon
  TGI: > 100 µM
PC-3 prostate
  TGI: 76.2 µM
A498 renal
  TGI: 17.7 µM

## c1csc(-c2ccc(-c3cccs3)c3nsnc23)c1
HT29 colon
  TGI: > 100 µM
MDA-MB-231 breast
  TGI: > 31.6 µM
NCI-H226 lung
  TGI: > 50.2 µM
HOP-62 NSCLC
  TGI: > 95.7 µM
MCF7 breast
  TGI: > 100 µM
SN12C renal
  TGI: > 100 µM
OVCAR-8 ovarian
  TGI: > 93.2 µM
SW-620 colon
  TGI: > 50 µM
PC-3 prostate
  TGI: > 100 µM
A498 renal
  TGI: > 100 µM

## NNC1=N/C(=C\c2ccco2)C(Cl)=N1
HT29 colon
  TGI: > 100 µM
MDA-MB-231 breast
  TGI: > 100 µM
NCI-H226 lung
  TGI: > 100 µM
HOP-62 NSCLC
  TGI: > 100 µM
MCF7 breast
  TGI: > 100 µM
SN12C renal
  TGI: > 100 µM
OVCAR-8 ovarian
  TGI: > 100 µM
SW-620 colon
  TGI: > 100 µM
PC-3 prostate
  TGI: > 100 µM
A498 renal
  TGI: > 100 µM

## Clc1ccc(CSCCc2ccncc2)cc1Cl
HT29 colon
  TGI: 31.2 µM
MDA-MB-231 breast
  TGI: 29.1 µM
NCI-H226 lung
  TGI: 49.2 µM
HOP-62 NSCLC
  TGI: 50.2 µM
MCF7 breast
  TGI: 35.7 µM
SN12C renal
  TGI: 42.2 µM
OVCAR-8 ovarian
  TGI: 46 µM
SW-620 colon
  TGI: 46.6 µM
PC-3 prostate
  TGI: 45.4 µM
A498 renal
  TGI: 26 µM

## CCCCn1cnc2c(c(CC#N)nn2-c2ccccc2)c1=N
HT29 colon
  TGI: > 100 µM
MDA-MB-231 breast
  TGI: > 100 µM
NCI-H226 lung
  TGI: > 100 µM
HOP-62 NSCLC
  TGI: > 100 µM
MCF7 breast
  TGI: > 100 µM
SN12C renal
  TGI: > 100 µM
OVCAR-8 ovarian
  TGI: > 100 µM
SW-620 colon
  TGI: > 100 µM
PC-3 prostate
  TGI: > 100 µM
A498 renal
  TGI: 91.6 µM
